Measured values published in PubChem BioAssay AID1552 (Sanford-Burnham Center for Chemical Genomics, 2009).
Active and inactive are the calls of the source. The rule behind the calls is not given here.

These compounds were tested against Ubiquitin-conjugating enzyme E2 N (Homo sapiens) (UniProt P61088) (assay: NMR detection of UBE2N ligand binding – biophysical, purified protein (AID 1552)). Settings: NMR binding to purified UBE2N.
Ubiquitin-conjugating enzyme E2 N (Homo sapiens), sequence (P61088 whole entry, looked up): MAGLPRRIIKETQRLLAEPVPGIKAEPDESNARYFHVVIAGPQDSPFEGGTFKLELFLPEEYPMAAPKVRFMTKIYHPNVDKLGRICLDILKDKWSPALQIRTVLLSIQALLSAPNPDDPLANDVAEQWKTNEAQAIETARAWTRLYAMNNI
For CC(=O)Nc1ccc(C(=O)N2CCOCC2)cc1Cl, the Kd was > 4 mM (inactive). In the case of CCC(C)C(=O)c1c(O)c(C)c2oc3c(C)c(O)c(C(=O)C(C)CC)c(O)c3c2c1O (centres undefined), the Kd is reported as > 4 mM (inactive). In the case of CCSc1nc2ccccc2n1CC(N)=O, the Kd is reported as > 4 mM (inactive). In the case of O=C1CSC2(CN3CCC2CC3)N1 (centres undefined), the Kd is reported as > 4 mM (inactive). In the case of COC(=O)NNc1ncnc(N)c1[N+](=O)[O-], the Kd is reported as > 4 mM (inactive). With COc1ccc(C(N)=O)cc1N the Kd was > 4 mM (inactive). Cc1ccc(S(=O)(=O)CC(N)=O)cc1 was tested, and the Kd was > 4 mM (inactive). In the case of CC12OC(=O)CC3C(C)(C)[C@H](O)C=C[C@]3(C)C1CC[C@]1(C)C2=CC(=O)O[C@H]1c1ccoc1 (some centres undefined), the Kd is reported as > 4 mM (inactive). In the case of Cn1c(=O)c2c([nH]c(=O)n2C)n(C)c1=O, the Kd is reported as > 4 mM (inactive). For CCCCN1C(=O)C2CC/C(=N/O)CC2C1=O (centres undefined), the Kd was > 4 mM (inactive). NC(=O)C1CCN(c2ccc(Cl)nn2)CC1 was tested, and the Kd was > 4 mM (inactive). In the case of Cc1ccc(C(=O)Nc2ccncc2)o1, the Kd is reported as > 4 mM (inactive). NS(=O)(=O)c1ccccc1Cl was tested, and the Kd was > 4 mM (inactive). For C=C1C(N)CC2CC1C2(C)C (centres undefined), the Kd was > 4 mM (inactive). With COc1ccc(-c2oc3c(CC=C(C)C)c(O[C@@H]4O[C@H](CO)[C@@H](O)[C@H](O)[C@H]4O)cc(O)c3c(=O)c2O[C@@H]2O[C@@H](C)[C@H](O)[C@@H](O)[C@H]2O)cc1 the Kd was > 4 mM (inactive). For CS(C)=C1C(=O)NC(=O)N(Cc2ccc(F)cc2)C1=O, the Kd was > 4 mM (inactive). In the case of O=C(Cc1c(F)cccc1Cl)Nc1ccncc1, the Kd is reported as > 4 mM (inactive). COC(=O)c1ccc(N2CCOCC2)nc1 was tested, and the Kd was > 4 mM (inactive). In the case of COC1C(O)C(O[C@H]2CC[C@]3(C=O)C4C(CC[C@]3(O)C2)[C@@]2(O)CC[C@H](C3=CC(=O)OC3)[C@@]2(C)C[C@H]4OC(C)=O)OC(C)C1OC(C)=O (some centres undefined), the Kd is reported as > 4 mM (inactive). O=C(O)CNC(=O)c1ccccc1Cl was tested, and the Kd was > 4 mM (inactive). For Cc1cc(C)n2nc(NCc3ccccc3)nc2n1, the Kd was > 4 mM (inactive). For O=c1cccc2n1CC1CC2CN2CCCC[C@@H]12 (some centres undefined), the Kd was > 4 mM (inactive). For Cc1c(-c2ccc(F)cc2)[n+](=O)c2c(n1[O-])CCC2, the Kd was > 4 mM (inactive). With O=C(c1ccccc1F)N1CCN(c2ccccc2)CC1 the Kd was > 4 mM (inactive). With NC(=O)CN1C(=O)c2cccc3cccc1c23 the Kd was > 4 mM (inactive). In the case of N=C1/C(=C\c2ccco2)C(=O)N=C2SC=NN12, the Kd is reported as > 4 mM (inactive). With CC(=O)OCC(=O)[C@@]1(O)CCC2C3CC[C@@H]4C[C@H](O)CC[C@]4(C)C3C(=O)C[C@@]21C (some centres undefined) the Kd was > 4 mM (inactive). In the case of Nc1cc(F)cc(F)c1, the Kd is reported as > 4 mM (inactive). In the case of Cc1csc2nc(N)nn12, the Kd is reported as > 4 mM (inactive). CCOC(=O)c1ccc(F)c(F)c1 was tested, and the Kd was > 4 mM (inactive). For N#CCSc1nnc2ccc3ccccc3n12, the Kd was > 4 mM (inactive). For COC(=O)N1CCN(c2ccc(OC)cc2)CC1, the Kd was > 4 mM (inactive). In the case of COc1ccccc1-c1c(C)nn2c(C)c(C(C)=O)cnc12, the Kd is reported as > 4 mM (inactive). With CCCOn1nnnc1-c1ccccc1 the Kd was > 4 mM (inactive). In the case of CC(N)C(=O)c1ccco1 (centres undefined), the Kd is reported as > 4 mM (inactive). For CC(C)C(C)/C=C/C(C)[C@H]1CCC2C3=CCC4CC(=O)CC[C@]4(C)C3CC[C@@]21C (some centres undefined), the Kd was > 4 mM (inactive). Cc1nn2c(=O)/c(=C/c3cccc(F)c3)sc2nc1=O was tested, and the Kd was > 4 mM (inactive). O=c1c2ccccc2[nH]c2ncccc12 was tested, and the Kd was > 4 mM (inactive). Cc1ccccc1CSc1nnc(C)n1N was tested, and the Kd was > 4 mM (inactive). COC(=O)Nc1nnc(-c2ccncc2)s1 was tested, and the Kd was > 4 mM (inactive). With Nc1cccc(-n2cnnn2)c1 the Kd was > 4 mM (inactive). In the case of CCOC(=O)c1csc(C)n1, the Kd is reported as > 4 mM (inactive). With COc1cccc(NC(=O)c2nc3ncccn3n2)c1 the Kd was > 4 mM (inactive). CCCCN1C(=O)N(C)C2NC(=O)NC21 (centres undefined) was tested, and the Kd was > 4 mM (inactive). With Cc1cc(C)nc(/N=C(/N)N2CCOCC2)n1 the Kd was > 4 mM (inactive). In the case of CCCCCCCCCCCC[C@H](C(=O)O)[C@@H](C)C(=O)O, the Kd is reported as > 4 mM (inactive). For CSc1ccccc1NC(=O)c1ccncc1, the Kd was > 4 mM (inactive). COc1ccc(/C=C/c2cc(O)cc(O)c2)cc1 was tested, and the Kd was > 4 mM (inactive). COc1cc(OC)c2c(c1)O[C@H](c1ccc(OC)c(OC)c1)[C@@H](O)C2 was tested, and the Kd was > 4 mM (inactive). CC1NC(C(=O)O)Cc2c1[nH]c1ccccc21 (centres undefined) was tested, and the Kd was > 4 mM (inactive). For O=C(Nc1cnccn1)c1cccnc1, the Kd was > 4 mM (inactive). For COC(=O)[C@@H]1C(O)CC[C@H]2CN3CCc4c([nH]c5ccccc45)[C@@H]3C[C@@H]21 (some centres undefined), the Kd was > 4 mM (inactive). CCc1ccccc1NC(=O)c1ccoc1C was tested, and the Kd was > 4 mM (inactive). For C[C@@H]1CC[C@]2(C(=O)O)CC[C@]3(C)C(=CCC4[C@@]5(C)CC[C@H](O)C(C)(C)C5CC[C@]43C)C2[C@H]1C (some centres undefined), the Kd was > 4 mM (inactive). O=C(O)[C@H](O)[C@@](O)(Cc1ccc(O)cc1)C(=O)O was tested, and the Kd was > 4 mM (inactive). In the case of O=C(NN1CCOCC1)c1ccccc1F, the Kd is reported as > 4 mM (inactive). With O=C(Nc1ccccc1C(F)(F)F)c1cnccn1 the Kd was > 4 mM (inactive). In the case of CC(=O)O[C@@H]1CC2C(C)(C)[C@H](O)C=C[C@]2(C)C2CC[C@]3(C)C(=CC(=O)O[C@H]3c3ccoc3)[C@@]21C (some centres undefined), the Kd is reported as > 4 mM (inactive). For Nc1ccc(CN2CCS(=O)(=O)CC2)cc1, the Kd was > 4 mM (inactive).
